In PMC10382604, “The mirrored cationic peptide as miRNA vehicle for efficient lung cancer therapy” (MedComm, 2023):
Ends that are not written are not given here.

How the values were obtained:
Experiment in all cases: CCK-8 cytotoxicity of the peptides
Details in all cases: CCK-8 assay, peptide alone, Figure S1
[1] = tested on: BEAS‐2B cells (human bronchial epithelial cells); format: cell-based
Procedure: (§1) Cell viability was detected by CCK8 assay (Beyotime Biotechnology, China) based on the universal protocol.[38] The ratio of cell viability was calculated as A treated/A control × 100%.

[2] = tested on: NCI‐H1299 (lung adenocarcinoma cells); format: cell-based, human
Procedure: as §1

[3] = tested on: A549 (lung adenocarcinoma cells); format: cell-based, human
Procedure: as §1

Measured: cytotoxicity

RGDGSRRRRPLGLAGRRRR [RR19]
no significant cytotoxicity: all assays above

RGDGSRRRRPLGLAGRRRRGSRGD [RD24]
no significant cytotoxicity: all assays above

RRRRPLGLAGRRRR [RR14]
no significant cytotoxicity: all assays above
